Test results as given in ChEMBL document CHEMBL5038645, “Discovery of Mycobacterium tuberculosis Rv3364c-Derived Small Molecules as Potential Therapeutic Agents to Target SNX9 for Sepsis” (J Med Chem, 2022).
Values after ≈ are worked out from the molar mass of the structure shown. Active and inactive are the calls of the source. The rule behind the calls is not given here.

Assays:
[1] = system: Staphylococcus aureus; test: Antibacterial activity against Staphylococcus aureus ATCC 6538 assessed as bacterial clearance incubated for 6 to 24 hrs by microbroth dilution method; type: functional; conditions: time 6-24 hrs
[2] = system: Pseudomonas aeruginosa; test: Antibacterial activity against Pseudomonas aeruginosa ATCC 10145 assessed as bacterial clearance incubated for 6 to 24 hrs by microbroth dilution method; type: functional; conditions: time 6-24 hrs
[3] = system: Escherichia coli; test: Antibacterial activity against Escherichia coli ATCC 12701 assessed as bacterial clearance incubated for 6 to 24 hrs by microbroth dilution method; type: functional; conditions: time 6-24 hrs
[4] = Antiinflammatory activity in […] cells assessed as reduction in LPS-induced TNF-alpha release at 10 uM pre incubated for 1 hr followed by LPS stimulation and measured after 30 mins by ELISA; type: functional
[5] = Antiinflammatory activity in […] cells assessed as reduction in LPS-induced NOX release at 10 uM pre incubated for 1 hr followed by LPS stimulation and measured after 30 mins by ELISA; type: functional
[6] = Antiinflammatory activity in […] cells assessed as reduction in LPS-induced IL-6 release at 10 uM pre incubated for 1 hr followed by LPS stimulation and measured after 30 mins by ELISA; type: functional
[7] = system: BMDM; test: Inhibition of SNX9- p47phox protein-protein interaction in mouse BMDM at 10 uM preincubated for 1 hrs followed by LPS stimulation for 30 mins; type: cell-based; conditions: time 1.5 hrs
[8] = system: THP-1; test: Antiinflammatory activity in LPS-induced human THP-1 cells assessed as reduction in TNF-alpha production preincubated for 1 hr followed by LPS stimulation and measured after 30 mins by ELISA; type: functional, cell-based; conditions: dose 1-10000 nM
[9] = system: THP-1; test: Inhibition of SNX9- p47phox protein-protein interaction in human THP-1 at 10 uM preincubated for 1 hrs followed by LPS stimulation for 30 mins; type: cell-based
[10] = Drug uptake in CLP-induced systemic sepsis mouse model in liver macrophages at 10 microg/kg, ip; type: ADME, tissue-based; conditions: in vivo, 0.01 mg/kg, dose 10 µg/kg
[11] = system: Mus musculus; test: In vivo inhibition of SNX9-p47phox protein-protein interaction in CLP-induced systemic sepsis mouse model assessed as reduction ROS in splenocytes at 10 microg/kg, ip; type: functional, organism-based; conditions: dose 10.0 µg/kg
[12] = system: Mus musculus; test: Protection against CLP-induced systemic sepsis SNX9-/- mouse model assessed as effect on mouse survival at 100 to 1000 microg/kg, ip; type: functional, organism-based; conditions: dose 100-1000 µg/kg
[13] = system: Mus musculus; test: Protection against CLP-induced systemic sepsis SNX9+/+ mouse model assessed as reduction in liver damage at 10 microg/kg, ip by H and E staining based analysis; type: functional, organism-based; conditions: dose 10.0 µg/kg
[14] = AUC (0 to last) in C57BL/6 mouse at 1 mg/kg, ip incubation up to 6 hrs by LC-MS/MS analysis; type: ADME, organism-based; set-up: route intraperitoneal, dose 1 mg/kg, time <=6; conditions: in vivo
[15] = system: Mus musculus; test: Protection against CLP-induced systemic sepsis SNX9+/+ mouse model assessed as mortality at 100 to 1000 microg/kg, ip; type: functional; conditions: dose 100-1000 µg/kg; at 100 to 1000 µg/kg
[16] = system: Mus musculus; test: Protection against CLP-induced systemic sepsis SNX9+/+ mouse model assessed as reduction in infiltration of immune cells at 10 microg/kg, ip by H & E staining based analysis; type: functional, organism-based; conditions: dose 10.0 µg/kg
[17] = system: BMDM; test: Inhibition of SNX9- p47phox protein-protein interaction in LPS-induced early endosome of mouse BMDM cells at 10 uM preincubated for 1 hrs followed by LPS stimulation for 30 mins; type: cell-based
[18] = system: Mus musculus; test: Protection against CLP-induced systemic sepsis SNX9+/+ mouse model assessed as reduction in lung damage at 10 microg/kg, ip by H and E staining based analysis; type: functional, organism-based; conditions: dose 10.0 µg/kg
[19] = system: Mus musculus; test: In vivo inhibition of SNX9-p47phox protein-protein interaction in CLP-induced systemic sepsis mouse model at 10 microg/kg, ip; type: functional, organism-based; conditions: dose 10.0 µg/kg
[20] = system: Mus musculus; test: Protection against CLP-induced ip dosed systemic sepsis SNX9+/+ mouse model; type: functional, organism-based; conditions: dose 1.0 µg/kg
[21] = Stability in human liver microsomes assessed as parent compound remaining at 10 uM preincubated for 5 mins followed by NADPH addition measured after 30 mins by LC-MS/MS analysis relative to control; type: ADME, Microsome; conditions: time 35 min, read-out: Stability
[22] = system: Mus musculus; test: Protection against CLP-induced systemic sepsis SNX9+/+ mouse model assessed as reduction in serum IL-12p40 at 10 microg/kg, ip; type: functional, organism-based; conditions: dose 10.0 µg/kg
[23] = system: THP-1; test: Effect on SNX9 expression in human THP-1 cells at 1 to 5000 nM measured after 24 to 48 hrs; type: functional, cell-based; conditions: dose 1-5000 nM, time 24-48 hrs
[24] = system: BMDM; test: Effect on SNX9 expression in mouse BMDM cells at 1 to 5000 nM measured after 24 to 48 hrs; type: functional, cell-based; conditions: dose 1-5000 nM, time 24-48 hrs
[25] = Stability in human plasma assessed as parent compound remaining at 10 uM incubation upto 120 mins by LC-MS/MS analysis relative to control; type: ADME, cell-free; conditions: read-out: Stability
[26] = system: Mus musculus; test: Protection against CLP-induced systemic sepsis SNX9+/+ mouse model assessed as reduction in serum IL-6 at 10 microg/kg, ip; type: functional, organism-based; conditions: dose 10.0 µg/kg
[27] = Tmax in C57BL/6 mouse at 1 mg/kg, ip incubation up to 6 hrs by LC-MS/MS analysis; type: ADME, organism-based; conditions: in vivo
[28] = Drug uptake in CLP-induced systemic sepsis mouse model in lung macrophages at 10 microg/kg, ip; type: ADME, tissue-based; conditions: in vivo, 0.01 mg/kg, dose 10 µg/kg
[29] = system: Mus musculus; test: Protection against CLP-induced systemic sepsis SNX9+/+ mouse model assessed as reduction in serum IL-18 at 10 microg/kg, ip; type: functional, organism-based; conditions: dose 10.0 µg/kg
[30] = system: Mus musculus; test: Protection against CLP-induced systemic sepsis SNX9+/+ mouse model assessed as reduction in serum TNF-alpha at 10 microg/kg, ip; type: functional, organism-based; conditions: dose 10.0 µg/kg
[31] = system: Mus musculus; test: Protection against CLP-induced systemic sepsis SNX9+/+ mouse model assessed as reduction in spleen damage at 10 microg/kg, ip by H and E staining based analysis; type: functional, organism-based; conditions: dose 10.0 µg/kg
[32] = system: BMDM; test: Antiinflammatory activity in LPS-induced […] cells assessed as reduction in TNF-alpha production preincubated for 1 hr followed by LPS stimulation and measured after 30 mins by ELISA; type: functional, cell-based; conditions: dose 1-10000 nM
[33] = system: Mus musculus; test: Protection against CLP-induced systemic sepsis SNX9+/+ mouse model assessed as reduction in serum IL-1beta at 10 microg/kg, ip; type: functional, organism-based; conditions: dose 10.0 µg/kg
[34] = Cmax in C57BL/6 mouse at 1 mg/kg, ip incubation up to 6 hrs by LC-MS/MS analysis; type: ADME, organism-based; set-up: route intraperitoneal, dose 1 mg/kg, time <=6; conditions: in vivo
[35] = system: Mus musculus; test: Protection against CLP-induced systemic sepsis SNX9+/+ mouse model assessed as reduction in serum IL-10 at 10 microg/kg, ip; type: functional, organism-based; conditions: dose 10.0 µg/kg
[36] = Half life in C57BL/6 mouse at 1 mg/kg, ip incubation up to 6 hrs by LC-MS/MS analysis; type: ADME, organism-based; conditions: in vivo
[37] = system: THP-1; test: Inhibition of SNX9- p47phox protein-protein interaction in LPS-induced early endosome of human THP-1cells at 10 uM preincubated for 1 hrs followed by LPS stimulation for 30 mins; type: cell-based

Compound: CC1(C)S[C@@H]2[C@H](NC(=O)[C@H](N)c3ccccc3)C(=O)N2[C@H]1C(=O)O [AMPICILLIN]
- MIC80 [1]: 0.25 µg/mL (≈ 0.715 µM)
- MIC80 [2]: 0.99 µg/mL (≈ 2.83 µM)
- MIC80 [3]: 1.98 µg/mL (≈ 5.67 µM)

Compound: CC(C)(C)c1ccc(-c2nc(NCCOCCOCCN)nc(NCC3CCCCO3)n2)cc1 (centres undefined)
- inhibition at 10 µM [4]: 10.4%
- inhibition at 10 µM [5]: 46.1%
- inhibition at 10 µM [6]: 56.7%

Compound: CC(C)(C)c1ccc(-c2nc(NCCOCCOCCN)nc(NCc3ccc(Cl)cc3)n2)cc1
- inhibition at 10 µM [4]: 15.2%
- inhibition at 10 µM [5]: 38.4%
- inhibition at 10 µM [6]: 50%

Compound: COc1ccc(-c2nc(NCCOCCOCCN)nc(NCC3CCCO3)n2)cc1 (centres undefined)
- inhibition at 10 µM [4]: 10.1%
- inhibition at 10 µM [5]: 38.4%
- inhibition at 10 µM [6]: 50.1%

Compound: CC(C)(C)c1ccc(-c2nc(NCCOCCOCCOCCN)nc(NCC3CCCO3)n2)cc1 (centres undefined)
- inhibition at 10 µM [4]: 13.4%
- inhibition at 10 µM [5]: 19.5%
- inhibition at 10 µM [6]: 22.2%

Compound: CC(C)(C)c1ccc(CNc2nc(NCCOCCOCCN)nc(-c3ccc(C(C)(C)C)cc3)n2)cc1
- inhibition at 10 µM [4]: 55.2%
- inhibition at 10 µM [5]: 38.4%
- inhibition at 10 µM [6]: 46.7%

Compound: CC(C)(C)c1ccc(-c2nc(NCCOCCOCCN)nc(NCc3cccc(Cl)c3)n2)cc1
- inhibition at 10 µM [4]: 50.1%
- inhibition at 10 µM [5]: 41.5%
- inhibition at 10 µM [6]: 43.3%

Compound: C=CCNc1nc(NCCOCCOCCN)nc(-c2ccc(C(C)(C)C)cc2)n1
- inhibition at 10 µM [4]: 23.4%
- inhibition at 10 µM [5]: 29.2%
- inhibition at 10 µM [6]: 32.6%

Compound: CC(C)(C)c1ccc(-c2nc(NCCOCCOCCN)nc(NCc3ccco3)n2)cc1
- inhibition at 10 µM [4]: 15.6%
- inhibition at 10 µM [5]: 44.7%
- inhibition at 10 µM [6]: 40.1%

Compound: CC(C)(C)c1ccc(-c2nc(NCCOCCOCCN)nc(NCc3ccc(F)cc3)n2)cc1
- inhibition at 10 µM [4]: 30.1%
- inhibition at 10 µM [5]: 46.1%
- inhibition at 10 µM [6]: 53.3%

Compound: CC(C)(C)c1ccc(-c2nc(NCCOCCOCCN)nc(NCC3CCCO3)n2)cc1.Cl (centres undefined)
- inhibition [7]: Active
- MIC80 [1]: 4 µg/mL
- Activity [8]: Dose-Dependent Effect
- inhibition [9]: Active
- Drug uptake [10]: Active
- inhibition [11]: Active
- Activity [12]: inactive
- Activity [13]: Active
- AUC(0-t) at 6 h [14]: 209 ng·h/mL
- Activity [15]: 70%
- MIC80 [2]: 1.98 µg/mL
- Activity [16]: Active
- inhibition [17]: Active
- inhibition at 10 µM [4]: 60.8%
- Activity [18]: Active
- inhibition [19]: Active
- Activity [20]: Dose-Dependent Effect
- remaining at 0.5 h, 10 µM [21]: > 100%
- Activity [22]: Active
- Activity [23]: inactive
- Activity [24]: inactive
- remaining at 2 h, 10 µM [25]: 93%
- Activity [26]: Active
- Tmax [27]: 10.2 min
- Drug uptake [28]: Active
- inhibition at 10 µM [5]: 57%
- Activity [29]: Active
- Activity [30]: Active
- Activity [31]: Active
- Activity [32]: Dose-Dependent Effect
- inhibition at 10 µM [6]: 66.7%
- Activity [33]: Active
- Cmax [34]: 136 ng/mL
- Activity [35]: Active
- half-life [36]: 63.6 min
- inhibition [37]: Active
- MIC80 [3]: 1.98 µg/mL

Compound: CC(C)(C)c1ccc(-c2nc(NCCOCCOCCN)nc(NCCc3ccccc3)n2)cc1
- inhibition at 10 µM [4]: 25.3%
- inhibition at 10 µM [5]: 23%
- inhibition at 10 µM [6]: 40.2%

Compound: NCCOCCOCCNc1nc(NCC2CCCO2)nc(-c2ccc(OC(F)(F)F)cc2)n1 (centres undefined)
- inhibition at 10 µM [4]: 10.9%
- inhibition at 10 µM [5]: 38.4%
- inhibition at 10 µM [6]: 16.7%

Compound: CC(C)(C)c1ccc(-c2nc(NCCOCCOCCN)nc(NCc3ccccc3)n2)cc1
- inhibition at 10 µM [4]: 10.7%
- inhibition at 10 µM [5]: 38.5%
- inhibition at 10 µM [6]: 50%

Compound: NCCOCCOCCNc1nc(NCC2CCCO2)nc(-c2ccccc2)n1 (centres undefined)
- inhibition at 10 µM [4]: 10.6%
- inhibition at 10 µM [5]: 30.7%
- inhibition at 10 µM [6]: 26.7%
